# Source: ChEMBL document CHEMBL3044672, “N9- and N7-(Chloromethyl Phenymethyl)Chloropurine Derivatives from , '-Dichloroxylenes: Synthesis and Anticancer Activity” (2005)
# How the values were obtained:
# Format in all cases: functional
# [1] = test system: HCT-116; test: Cytotoxicity against Homo sapiens (human) HCT116 cells after 48 hr by sulforhodamine B assay; conditions: HCT-116, 48 h
# [2] = test system: OVCAR-3; test: Cytotoxicity against Homo sapiens (human) OVCAR3 cells after 48 hr by sulforhodamine B assay; conditions: OVCAR-3, 48 h
# [3] = test system: TK-10; test: Cytotoxicity against Homo sapiens (human) TK10 cells after 48 hr by sulforhodamine B assay; conditions: TK-10, 48 h
# [4] = test system: OVCAR-8; test: Cytotoxicity against Homo sapiens (human) OVCAR8 cells after 48 hr by sulforhodamine B assay; conditions: OVCAR-8, 48 h
# [5] = test system: SK-MEL-2; test: Cytotoxicity against Homo sapiens (human) SK-MEL-2 cells after 48 hr by sulforhodamine B assay; conditions: SK-MEL-2, 48 h
# [6] = test system: SF-295; test: Cytotoxicity against Homo sapiens (human) SF295 cells after 48 hr by sulforhodamine B assay; conditions: SF-295, 48 h
# [7] = test system: IGROV-1; test: Cytotoxicity against Homo sapiens (human) IGROV1 cells after 48 hr by sulforhodamine B assay; conditions: IGROV-1, 48 h
# [8] = test system: DU-145; test: Cytotoxicity against Homo sapiens (human) DU145 cells after 48 hr by sulforhodamine B assay; conditions: DU-145, 48 h
# [9] = test system: OVCAR-4; test: Cytotoxicity against Homo sapiens (human) OVCAR4 cells after 48 hr by sulforhodamine B assay; conditions: OVCAR-4, 48 h
# [10] = test system: SW-620; test: Cytotoxicity against Homo sapiens (human) SW620 cells after 48 hr by sulforhodamine B assay; conditions: SW-620, 48 h
# [11] = test system: SNB-19; test: Cytotoxicity against Homo sapiens (human) SNB19 cells after 48 hr by sulforhodamine B assay; conditions: SNB-19, 48 h
# [12] = test system: UACC-257; test: Cytotoxicity against Homo sapiens (human) UACC257 cells after 48 hr by sulforhodamine B assay; conditions: UACC-257, 48 h
# [13] = test system: EKVX; test: Cytotoxicity against Homo sapiens (human) EKVX cells after 48 hr by sulforhodamine B assay
# [14] = test system: MCF7; test: Cytotoxicity against Homo sapiens (human) MCF7 cells assessed as cell growth at 10^-4 M after 48 hr by Alamar blue assay; conditions: MCF7, 48 h, read-out: Activity
# [15] = test system: SF-539; test: Cytotoxicity against Homo sapiens (human) SF539 cells after 48 hr by sulforhodamine B assay; conditions: SF-539, 48 h
# [16] = test system: SK-MEL-5; test: Cytotoxicity against Homo sapiens (human) SK-MEL-5 cells after 48 hr by sulforhodamine B assay; conditions: SK-MEL-5, 48 h
# [17] = test system: RPMI-8226; test: Cytotoxicity against Homo sapiens (human) RPMI8226 cells after 48 hr by sulforhodamine B assay; conditions: RPMI-8226, 48 h
# [18] = test system: CAKI-1; test: Cytotoxicity against Homo sapiens (human) Caki1 cells after 48 hr by sulforhodamine B assay; conditions: CAKI-1, 48 h
# [19] = test system: HCC 2998; test: Cytotoxicity against Homo sapiens (human) HCC2998 cells after 48 hr by sulforhodamine B assay; conditions: HCC 2998, 48 h
# [20] = test system: K562; test: Cytotoxicity against Homo sapiens (human) K562 cells after 48 hr by sulforhodamine B assay; conditions: K562, 48 h
# [21] = test system: M14; test: Cytotoxicity against Homo sapiens (human) M14 cells after 48 hr by sulforhodamine B assay; conditions: M14, 48 h
# [22] = test system: A549; test: Cytotoxicity against Homo sapiens (human) A549 cells after 48 hr by sulforhodamine B assay; conditions: A549, 48 h
# [23] = test system: LOX IMVI; test: Cytotoxicity against Homo sapiens (human) LOXIMVI cells after 48 hr by sulforhodamine B assay
# [24] = test system: HT-29; test: Cytotoxicity against Homo sapiens (human) HT-29 cells after 48 hr by sulforhodamine B assay; conditions: HT-29, 48 h
# [25] = test system: OVCAR-5; test: Cytotoxicity against Homo sapiens (human) OVCAR5 cells after 48 hr by sulforhodamine B assay; conditions: OVCAR-5, 48 h
# [26] = test system: SNB-75; test: Cytotoxicity against Homo sapiens (human) SNB75 cells after 48 hr by sulforhodamine B assay; conditions: SNB-75, 48 h
# [27] = test system: A498; test: Cytotoxicity against Homo sapiens (human) A498 cells after 48 hr by sulforhodamine B assay; conditions: A498, 48 h
# [28] = read-out: LC50 (the source's name)
smiles,measurement,setting,value
ClCc1ccc(Cn2cnc3nc(Cl)nc(Cl)c32)cc1,GI50,[1],0.12 µM
same,TGI,[1],1.24 µM
same,CC50,[1]; [28],> 100 µM
same,GI50,[2],0.3 µM
same,LC50,[2],2.51 µM
same,TGI,[2],0.72 µM
same,GI50,[3],0.12 µM
same,TGI,[3],0.29 µM
same,CC50,[3]; [28],0.72 µM
same,GI50,[4],1.99 µM
same,LC50 (concentration killing 50% of cells),[4],8.31 µM
same,TGI,[4],4.07 µM
same,GI50,[5],1.12 µM
same,LC50 (concentration killing 50% of cells),[5],6.45 µM
same,TGI,[5],2.69 µM
same,GI50,[6],1.81 µM
same,TGI,[6],3.31 µM
same,CC50,[6]; [28],5.88 µM
same,GI50,[7],1.41 µM
same,LC50,[7],5.75 µM
same,TGI,[7],2.81 µM
same,GI50,[8],1.81 µM
same,LC50,[8],6.6 µM
same,TGI,[8],3.46 µM
same,GI50,[9],2.08 µM
same,TGI,[9],4.16 µM
same,GI50,[10],13.2 µM
same,TGI,[10],28.8 µM
same,CC50,[10]; [28],64.6 µM
same,GI50,[11],29.5 µM
same,LC50,[11],> 100 µM
same,TGI,[11],> 100 µM
same,GI50,[12],2.23 µM
same,LC50 (concentration killing 50% of cells),[12],34.7 µM
same,TGI,[12],5.49 µM
same,GI50,[13],1.9 µM
same,TGI,[13],3.46 µM
same,CC50,[13]; [28],6.3 µM
same,growth at 100 µM,[14],1%
same,GI50,[15],1.86 µM
same,LC50 (concentration killing 50% of cells),[15],5.88 µM
same,TGI,[15],3.31 µM
same,GI50,[16],2.45 µM
same,LC50,[16],31.6 µM
same,TGI,[16],9.12 µM
same,GI50,[17],1.65 µM
same,TGI,[17],28.2 µM
same,CC50,[17]; [28],97.7 µM
same,GI50,[18],1.44 µM
same,TGI,[18],2.75 µM
same,CC50,[18]; [28],5.37 µM
same,GI50,[19],2.04 µM
same,TGI,[19],3.8 µM
same,CC50,[19]; [28],7.07 µM
same,GI50,[20],3.31 µM
same,TGI,[20],> 100 µM
same,CC50,[20]; [28],> 100 µM
same,GI50,[21],1.44 µM
same,LC50,[21],6.91 µM
same,TGI,[21],3.16 µM
same,GI50,[22],2.13 µM
same,TGI,[22],4.07 µM
same,CC50,[22]; [28],7.94 µM
same,GI50,[23],1.62 µM
same,LC50,[23],6.45 µM
same,TGI,[23],3.23 µM
same,GI50,[24],3.54 µM
same,TGI,[24],> 100 µM
same,CC50,[24]; [28],> 100 µM
same,GI50,[25],2.18 µM
same,TGI,[25],4.26 µM
same,CC50,[25]; [28],8.31 µM
same,GI50,[26],2.08 µM
same,TGI,[26],3.98 µM
same,CC50,[26]; [28],7.41 µM
same,GI50,[27],11.2 µM
same,"LC50 (lethal concentration, 50% cell kill)",[27],49 µM
same,TGI,[27],23.4 µM
